According to patent US20190151312A1, “HEPARAN SULFATE BIOSYNTHESIS INHIBITORS FOR THE TREATMENT OF DISEASES” (BioMarin Pharmaceutical Inc., priority 2014, published 2019):

System: GM01896 cells (MPS II dermal fibroblasts)
Test: Assay 1: MPS cellular assay, MPS II (heparan sulfate disaccharide biomarkers by LC-MS)
Assay type: cell-based, human
Conditions: Homo sapiens, Fibroblast, Assay 1 for MPS II, heparan sulfate disaccharide biomarkers (I2a4, I2a6, I2S0 and/or I2S6), read-out: IC50 Range
Summary of the method: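 MPS II patient dermal fibroblasts (GM01896) treated with compound at ≤30 μM for 4 to 21 days. Heparan sulfate GAGs isolated by anion exchange, digested with heparinases I-III, aniline-tagged against [13C6]aniline standards and quantified by LC-MS; IC50 from curve fitting. Viability monitored by alamar blue or ATP.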

Compound	IC50
Cn1ccc2ccc(Nc3cc(-c4ccc5cnn(C)c5c4)nc(N4CCOCC4)n3)cc21 [[6-(1-methyl(1H-indazol-6-yl))-2-morpholin-4-ylpyrimidin-4-yl](1-methylindol-6-yl)amine]	< 500 nM
COCCn1cnc2ccc(-c3cc(Nc4ccc(C(=O)O)cc4)nc(N4CCOCC4)n3)cc21 [4-({6-[1-(2-methoxyethyl)benzimidazol-6-yl]-2-morpholin-4-ylpyrimidin-4-yl}amino)benzoic acid]	1000 to 5000 nM
Cc1cc2ccc(Nc3cc(-c4ccc5c(CCN6CCOCC6)nn(C)c5c4)nc(N4CCOCC4)n3)cc2n1C [(1,2-dimethylindol-6-yl){6-[1-methyl-3-(2-morpholin-4-ylethyl)(1H-indazol-6-yl)]-2-morpholin-4-ylpyrimidin-4-yl}amine]	500 to 1000 nM
Cn1nc(NCCCCN2CCCC2)c2ccc(-c3cc(Nc4ccc(Cl)cc4)nc(N4CCOCC4)n3)cc21 [(4-chlorophenyl)(6-{1-methyl-3-[(4-pyrrolidinylbutyl)amino](1H-indazol-6-yl)}-2-morpholin-4-ylpyrimidin-4-yl)amine]	500 to 1000 nM
Cn1ncc2ccc(-c3cc(Nc4ccc(-c5ncon5)cc4)nc(N4CCOCC4)n3)cc21 [[6-(1-methyl(1H-indazol-6-yl))-2-morpholin-4-ylpyrimidin-4-yl](4-(1,2,4-oxadiazol-3-yl)phenyl)amine]	500 to 1000 nM
Cc1nc(-c2ccc(Nc3cc(-c4ccc5cnn(C)c5c4)nc(N4CCOCC4)n3)cc2)no1 [[4-(5-methyl(1,2,4-oxadiazol-3-yl))phenyl][6-(1-methyl(1H-indazol-6-yl))-2-morpholin-4-ylpyrimidin-4-yl]amine]	1000 to 5000 nM
Cn1ncc2ccc(-c3cc(Nc4ccc5c(c4)nnn5C)nc(N4CCOCC4)n3)cc21 [[6-(1-methyl(1H-indazol-6-yl))-2-morpholin-4-ylpyrimidin-4-yl](1-methylbenzotriazol-5-yl)amine]	1000 to 5000 nM
Cc1nn(C)c2cc(-c3cc(Nc4ccc5cn[nH]c5c4)nc(N4CCOCC4)n3)ccc12 [1H-indazol-6-yl[6-(1,3-dimethyl(1H-indazol-6-yl))-2-morpholin-4-ylpyrimidin-4-yl]amine]	1000 to 5000 nM
Cc1nc2ccc(-c3cc(Nc4ccc(Cl)cc4)nc(N4CCOCC4)n3)cc2n1C1CCC1 [(4-chlorophenyl)[6-(1-cyclobutyl-2-methylbenzimidazol-6-yl)-2-morpholin-4-ylpyrimidin-4-yl]amine]	1000 to 5000 nM
Cc1c2ccc(-c3cc(Nc4ccc(Cl)cc4)nc(N4CCOCC4)n3)cc2nn1CCN(C)C [[2-(6-{6-[(4-chlorophenyl)amino]-2-morpholin-4-ylpyrimidin-4-yl}-3-methyl(2H-indazol-2-yl))ethyl]dimethylamine]	1000 to 5000 nM
Clc1ccc(Nc2cc(-c3ccc4[nH]ncc4c3)nc(N3CCOCC3)n2)cc1 [N-(4-chlorophenyl)-6-(1H-indazol-5-yl)-2-morpholinopyrimidin-4-amine]	1000 to 5000 nM
CNC(=O)c1ccc(Nc2cc(-c3ccc4cnn(C5CC5)c4c3)nc(N3CCOCC3)n2)cn1 [(5-{[6-(1-cyclopropyl(1H-indazol-6-yl))-2-morpholin-4-ylpyrimidin-4-yl]amino}(2-pyridyl))-N-methylcarboxamide]	< 500 nM
Cn1ncc2ccc(-c3cc(Nc4ccc(-c5c[nH]cn5)cc4)nc(N4CCOCC4)n3)cc21 [(4-imidazol-4-ylphenyl)[6-(1-methyl(1H-indazol-6-yl))-2-morpholin-4-ylpyrimidin-4-yl]amine]	500 to 1000 nM
Cn1ccc2ccc(Nc3cc(-c4ccc5c(CCN)nn(C)c5c4)nc(N4CCOCC4)n3)cc21 [{6-[3-(2-aminoethyl)-1-methyl(1H-indazol-6-yl)]-2-morpholin-4-ylpyrimidin-4-yl}(1-methylindol-6-yl)amine]	< 500 nM
CCNC(=O)c1ccc(Nc2cc(-c3ccc4cnn(C)c4c3)nc(N3CCOCC3)n2)cc1 [N-ethyl(4-{[6-(1-methyl(1H-indazol-6-yl))-2-morpholin-4-ylpyrimidin-4-yl]amino}phenyl)carboxamide]	500 to 1000 nM
Clc1ccc(Nc2cc(-c3ccc4c(c3)ncn4CCN3CCCC3)nc(N3CCOCC3)n2)cc1 [(4-chlorophenyl){2-morpholin-4-yl-6-[1-(2-pyrrolidinylethyl)benzimidazol-5-yl]pyrimidin-4-yl}amine]	1000 to 5000 nM
CNC(=O)c1ccc(Nc2cc(-c3ccc4c(cnn4C4CC4)c3)nc(N3CCOCC3)n2)cc1 [(4-{[6-(1-cyclopropyl(1H-indazol-5-yl))-2-morpholin-4-ylpyrimidin-4-yl]amino}phenyl)-N-methylcarboxamide]	1000 to 5000 nM
Clc1ccc(Nc2cc(-c3ccc4c(c3)ncn4CCN3CCOCC3)nc(N3CCOCC3)n2)cc1 [(4-chlorophenyl){2-morpholin-4-yl-6-[1-(2-morpholin-4-ylethyl)benzimidazol-5-yl]pyrimidin-4-yl}amine]	500 to 1000 nM
Cn1cc2cc(Nc3cc(-c4ccc5cnn(C)c5c4)nc(N4CCOCC4)n3)ccc2n1 [[6-(1-methyl(1H-indazol-6-yl))-2-morpholin-4-ylpyrimidin-4-yl](2-methyl(2H-indazol-5-yl))amine]	1000 to 5000 nM
CC(=O)c1ccc(Nc2cc(-c3ccc4cnn(C)c4c3)nc(N3CCOCC3)n2)cc1 [1-acetyl-4-{[6-(1-methyl(1H-indazol-6-yl))-2-morpholin-4-ylpyrimidin-4-yl]amino}benzene]	500 to 1000 nM
CN1CCN(c2nn(C)c3cc(-c4cc(Nc5ccc(Cl)cc5)nc(N5CCOCC5)n4)ccc23)CC1 [(4-chlorophenyl){6-[1-methyl-3-(4-methylpiperazinyl)(1H-indazol-6-yl)]-2-morpholin-4-ylpyrimidin-4-yl}amine]	1000 to 5000 nM
Cn1nc(NCCN2CCOCC2)c2ccc(-c3cc(Nc4ccc(Cl)cc4)nc(N4CCOCC4)n3)cc21 [(4-chlorophenyl)(6-{1-methyl-3-[(2-morpholin-4-ylethyl)amino](1H-indazol-6-yl)}-2-morpholin-4-ylpyrimidin-4-yl)amine]	500 to 1000 nM
Cn1nc(CCN2CCNCC2)c2ccc(-c3cc(Nc4ccc(Cl)cc4)nc(N4CCOCC4)n3)cc21 [(4-chlorophenyl){6-[1-methyl-3-(2-piperazinylethyl)(1H-indazol-6-yl)]-2-morpholin-4-ylpyrimidin-4-yl}amine]	1000 to 5000 nM
CNC(=O)c1ccc(Nc2cc(-c3ccc4cnn(C)c4c3)nc(N3CCOCC3)n2)cc1 [N-methyl(4-{[6-(1-methyl(1H-indazol-6-yl))-2-morpholin-4-ylpyrimidin-4-yl]amino}phenyl)carboxamide]	< 500 nM
CNC(=O)c1ccc(Nc2cc(-c3ccc4ncn(CC5CC5)c4c3)nc(N3CCOCC3)n2)cc1 [[4-({6-[1-(cyclopropylmethyl)benzimidazol-6-yl]-2-morpholin-4-ylpyrimidin-4-yl}amino)phenyl]-N-methylcarboxamide]	< 500 nM
Clc1ccc(Nc2cc(-c3ccc4cnn(C5CCC5)c4c3)nc(N3CCOCC3)n2)cc1 [(4-chlorophenyl)[6-(1-cyclobutyl(1H-indazol-6-yl))-2-morpholin-4-ylpyrimidin-4-yl]amine]	1000 to 5000 nM
Cn1cnc2ccc(-c3cc(Nc4ccc(C(N)=O)cc4)nc(N4CCOCC4)n3)cc21 [4-{[6-(1-methylbenzimidazol-6-yl)-2-morpholin-4-ylpyrimidin-4-yl]amino}benzamide]	500 to 1000 nM
CNC(=O)c1ccc(Nc2cc(-c3ccc4ncn(CCN(C)C)c4c3)nc(N3CCOCC3)n2)cc1 [{4-[(6-{1-[2-(dimethylamino)ethyl]benzimidazol-6-yl}-2-morpholin-4-ylpyrimidin-4-yl)amino]phenyl}-N-methylcarboxamide]	< 500 nM
